According to ChEMBL document CHEMBL5233266, “β-Carboline as a Privileged Scaffold for Multitarget Strategies in Alzheimer's Disease Therapy” (J Med Chem, 2021):
Where “and” joins values, the source holds several entries; their conditions need not be identical. Equal entries are not always repeated.

Tests used:
[1] = molecular target: T1, Gamma-aminobutyric acid receptor subunit alpha-2 (Homo sapiens, UniProt P47869); test: Binding affinity to human recombinant GABAA alpha2 receptor assessed as inhibition constant incubated for 1 hrs by liquid scintillation counting analysis
T1 sequence (P47869 whole entry): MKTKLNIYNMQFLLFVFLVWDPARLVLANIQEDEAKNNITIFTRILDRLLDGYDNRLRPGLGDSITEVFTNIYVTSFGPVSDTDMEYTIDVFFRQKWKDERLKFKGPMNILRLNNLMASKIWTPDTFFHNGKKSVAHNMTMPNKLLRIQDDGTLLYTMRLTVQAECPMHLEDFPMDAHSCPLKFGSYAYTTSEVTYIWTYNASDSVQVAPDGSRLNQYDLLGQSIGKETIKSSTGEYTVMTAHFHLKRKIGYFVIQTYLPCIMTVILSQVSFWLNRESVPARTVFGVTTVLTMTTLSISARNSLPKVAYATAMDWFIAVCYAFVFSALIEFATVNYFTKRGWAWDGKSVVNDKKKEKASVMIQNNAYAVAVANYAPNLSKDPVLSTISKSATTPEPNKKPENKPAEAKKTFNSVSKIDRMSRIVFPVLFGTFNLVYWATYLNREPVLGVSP

[2] = molecular target: T2, Gamma-aminobutyric acid receptor subunit alpha-3 (Homo sapiens, UniProt P34903); test: Binding affinity to human recombinant GABAA alpha3 receptor assessed as inhibition constant incubated for 1 hrs by liquid scintillation counting analysis
T2 sequence (P34903 whole entry): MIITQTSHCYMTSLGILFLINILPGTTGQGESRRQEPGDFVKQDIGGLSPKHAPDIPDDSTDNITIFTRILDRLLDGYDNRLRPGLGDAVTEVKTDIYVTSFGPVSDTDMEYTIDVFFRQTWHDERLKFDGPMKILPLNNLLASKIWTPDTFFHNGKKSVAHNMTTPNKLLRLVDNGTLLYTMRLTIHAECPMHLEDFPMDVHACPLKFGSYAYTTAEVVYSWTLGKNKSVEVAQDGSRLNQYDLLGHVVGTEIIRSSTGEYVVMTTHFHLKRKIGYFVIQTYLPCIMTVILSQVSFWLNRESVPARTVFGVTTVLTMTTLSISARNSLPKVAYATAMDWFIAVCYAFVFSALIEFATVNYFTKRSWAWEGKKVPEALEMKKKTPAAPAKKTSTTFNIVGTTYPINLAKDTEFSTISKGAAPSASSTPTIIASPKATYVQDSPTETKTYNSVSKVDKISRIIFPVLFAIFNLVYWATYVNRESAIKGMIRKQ

[3] = molecular target: T3, Gamma-aminobutyric acid receptor subunit alpha-1 (Homo sapiens, UniProt P14867); test: Binding affinity to human recombinant GABAA alpha1 receptor assessed as inhibition constant incubated for 1 hrs by liquid scintillation counting analysis
T3 sequence (P14867 whole entry): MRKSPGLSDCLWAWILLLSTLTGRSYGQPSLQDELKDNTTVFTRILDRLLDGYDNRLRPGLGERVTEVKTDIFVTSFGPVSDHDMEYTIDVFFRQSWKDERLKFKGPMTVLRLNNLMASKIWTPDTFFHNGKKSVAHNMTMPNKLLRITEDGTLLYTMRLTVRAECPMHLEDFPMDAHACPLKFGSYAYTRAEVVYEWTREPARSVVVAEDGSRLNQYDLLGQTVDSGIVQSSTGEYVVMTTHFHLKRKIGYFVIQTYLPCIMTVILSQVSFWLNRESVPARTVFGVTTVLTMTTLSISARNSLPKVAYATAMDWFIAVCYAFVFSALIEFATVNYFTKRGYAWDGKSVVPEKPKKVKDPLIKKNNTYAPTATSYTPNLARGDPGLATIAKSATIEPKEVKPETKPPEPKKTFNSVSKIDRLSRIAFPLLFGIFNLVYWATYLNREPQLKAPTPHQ

[4] = molecular target: Gamma-aminobutyric acid receptor subunit alpha-6 (Homo sapiens, UniProt Q16445); test: Binding affinity to human recombinant GABAA alpha6 receptor assessed as inhibition constant incubated for 1 hrs by liquid scintillation counting analysis
Chain of Gamma-aminobutyric acid receptor subunit alpha-6 (Q16445 whole entry): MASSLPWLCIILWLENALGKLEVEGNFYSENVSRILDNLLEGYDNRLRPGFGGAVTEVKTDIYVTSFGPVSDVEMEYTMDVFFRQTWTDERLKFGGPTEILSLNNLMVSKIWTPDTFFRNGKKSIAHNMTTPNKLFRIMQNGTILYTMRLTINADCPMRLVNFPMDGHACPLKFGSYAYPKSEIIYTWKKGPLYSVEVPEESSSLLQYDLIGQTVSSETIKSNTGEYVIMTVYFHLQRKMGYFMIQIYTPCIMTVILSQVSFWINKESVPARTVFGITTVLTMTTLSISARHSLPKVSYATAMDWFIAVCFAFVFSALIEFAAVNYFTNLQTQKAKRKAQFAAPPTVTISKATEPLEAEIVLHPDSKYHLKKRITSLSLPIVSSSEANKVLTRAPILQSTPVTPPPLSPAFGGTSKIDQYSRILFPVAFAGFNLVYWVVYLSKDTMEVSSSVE

[5] = molecular target: GABA-A receptor; anion channel; test: Displacement of [3H]flunitrazepam from GABAA (unknown origin ) receptor by radioligand binding assay; format: protein-complex assay, Homo sapiens
[6] = molecular target: T4, Gamma-aminobutyric acid receptor subunit alpha-5 (Homo sapiens, UniProt P31644); test: Binding affinity to human recombinant GABAA alpha5 receptor assessed as inhibition constant incubated for 1 hrs by liquid scintillation counting analysis
T4 sequence (P31644 whole entry): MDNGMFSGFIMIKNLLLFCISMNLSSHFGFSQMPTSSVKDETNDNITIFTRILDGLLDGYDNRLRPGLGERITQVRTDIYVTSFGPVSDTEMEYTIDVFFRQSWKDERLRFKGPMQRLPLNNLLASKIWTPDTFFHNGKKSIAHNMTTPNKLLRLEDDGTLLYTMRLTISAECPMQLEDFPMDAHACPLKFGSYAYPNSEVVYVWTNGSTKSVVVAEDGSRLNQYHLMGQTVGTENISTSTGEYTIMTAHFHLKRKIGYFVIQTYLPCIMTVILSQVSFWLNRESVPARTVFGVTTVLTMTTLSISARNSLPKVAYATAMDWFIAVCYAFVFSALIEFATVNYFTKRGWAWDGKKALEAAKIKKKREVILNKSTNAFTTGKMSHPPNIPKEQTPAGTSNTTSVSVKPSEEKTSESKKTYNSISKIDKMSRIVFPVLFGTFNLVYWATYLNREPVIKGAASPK

[7] = molecular target: cGMP-specific 3',5'-cyclic phosphodiesterase (Homo sapiens, UniProt O76074); test: Inhibition of PDE5 (unknown origin)
Acetylcholinesterase = Acetylcholinesterase (Homo sapiens, UniProt P22303); test: Inhibition of AChE (unknown origin)
Chain of Acetylcholinesterase (P22303 whole entry): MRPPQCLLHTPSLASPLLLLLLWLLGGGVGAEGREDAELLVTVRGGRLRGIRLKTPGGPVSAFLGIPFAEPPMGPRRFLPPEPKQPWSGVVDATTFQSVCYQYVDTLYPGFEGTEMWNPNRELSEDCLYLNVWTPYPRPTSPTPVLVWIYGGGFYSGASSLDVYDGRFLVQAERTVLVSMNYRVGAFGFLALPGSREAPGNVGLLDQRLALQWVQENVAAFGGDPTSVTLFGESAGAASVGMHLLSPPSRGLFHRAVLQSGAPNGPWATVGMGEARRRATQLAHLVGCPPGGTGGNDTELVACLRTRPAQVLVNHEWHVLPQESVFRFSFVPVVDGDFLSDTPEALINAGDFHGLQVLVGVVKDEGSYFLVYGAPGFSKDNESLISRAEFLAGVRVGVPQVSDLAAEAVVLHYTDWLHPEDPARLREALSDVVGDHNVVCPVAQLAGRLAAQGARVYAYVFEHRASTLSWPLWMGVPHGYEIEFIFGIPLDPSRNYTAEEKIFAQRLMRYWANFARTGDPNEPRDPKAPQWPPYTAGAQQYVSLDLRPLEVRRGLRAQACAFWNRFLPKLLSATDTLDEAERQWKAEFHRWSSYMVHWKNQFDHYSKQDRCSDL

Cholinesterase = Cholinesterase (Homo sapiens, UniProt P06276); test: Inhibition of BuChE (unknown origin)
Chain of Cholinesterase (P06276 whole entry): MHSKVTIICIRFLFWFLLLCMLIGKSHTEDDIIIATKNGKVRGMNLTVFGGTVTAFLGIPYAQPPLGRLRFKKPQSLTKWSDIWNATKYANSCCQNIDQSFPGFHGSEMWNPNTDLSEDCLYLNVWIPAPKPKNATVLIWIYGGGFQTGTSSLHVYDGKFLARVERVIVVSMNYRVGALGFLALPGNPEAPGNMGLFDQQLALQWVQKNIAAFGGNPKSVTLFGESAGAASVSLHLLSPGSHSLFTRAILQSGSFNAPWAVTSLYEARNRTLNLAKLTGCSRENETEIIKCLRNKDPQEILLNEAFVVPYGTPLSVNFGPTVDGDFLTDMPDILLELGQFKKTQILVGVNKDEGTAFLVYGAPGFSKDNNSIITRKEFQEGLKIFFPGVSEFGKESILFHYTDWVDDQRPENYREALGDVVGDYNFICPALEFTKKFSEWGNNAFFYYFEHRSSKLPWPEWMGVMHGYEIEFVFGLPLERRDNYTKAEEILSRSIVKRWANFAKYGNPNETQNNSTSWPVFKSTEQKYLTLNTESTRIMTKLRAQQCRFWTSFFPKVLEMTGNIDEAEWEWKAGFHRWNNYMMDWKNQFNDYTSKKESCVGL

COC(=O)c1cc2c(cn1)[nH]c1ccc(NCc3ccccc3)cc12
Ki [1]: 30 nM | Ki [2]: 49 nM | Ki [3]: 5 nM | Ki [4]: > 10000 nM | IC50 [5]: 4 nM | Ki [6]: 480 nM

CCOC(=O)c1ncc2[nH]c3ccc(OCc4ccccc4)cc3c2c1COC
Ki [1]: 4 nM | Ki [2]: 6 nM | Ki [3]: 4 nM | Ki [4]: > 1000 nM | IC50 [5]: 0.5 nM | Ki [6]: 5 nM

O=C1[C@@H]2Cc3c([nH]c4ccccc34)[C@@H](c3ccc4c(c3)OCO4)N2C(=O)CN1CCC1CCN(Cc2ccccc2)CC1
IC50 [7]: 1500 nM | IC50 (Acetylcholinesterase): 32 nM

COC(=O)[C@@H]1Cc2c([nH]c3ccccc23)[C@@H](c2ccc(Cl)cc2)N1C(=O)CCl
IC50 [7]: 2700 nM

O=C1C2Cc3c([nH]c4ccccc34)C(c3ccc4c(c3)OCO4)N2C(=O)CN1C1CCCCC1 (configuration not stated)
IC50 [7]: 3 nM

O=C(O)c1cc2c(cn1)[nH]c1ccccc12
IC50 [5]: 31000 nM

O=C1[C@H]2Cc3c([nH]c4ccccc34)[C@@H](c3ccc4c(c3)OCO4)N2C(=O)CN1[C@@H]1CCN(Cc2cccnc2)C1
IC50 [7]: 2 nM

CCCOc1ccc2[nH]c3cnc(C(=O)OCC)c(COC)c3c2c1
Ki [1]: 1 nM | Ki [2]: 2 nM | Ki [3]: 0.5 nM | Ki [4]: 1300 nM | IC50 [5]: 0.5 nM | Ki [6]: 2 nM

CCCCN1CC(=O)N2[C@H](c3ccc(Br)cc3)c3[nH]c4ccccc4c3C[C@H]2C1=O
IC50 [7]: 10 nM

CCCCN1CC2Cc3c([nH]c4ccccc34)C(c3ccc(OC)cc3)N2C1=O (configuration not stated)
IC50 [7]: 60 nM

O=C1[C@H]2Cc3c([nH]c4ccccc34)[C@@H](c3ccc4c(c3)OCO4)N2C(=O)CN1[C@@H]1CCN(Cc2ncc[nH]2)C1
IC50 [7]: 0.8 nM

CCOC(=O)c1ncc2[nH]c3cccc(OCc4ccccc4)c3c2c1COC
IC50 [5]: 0.2 nM

CCN1C(=O)[C@H]2Cc3c([nH]c4ccccc34)[C@@H](c3ccc(Br)s3)N2C1=O
IC50 [7]: 170 nM

CCCC(=O)c1cc2c(cn1)[nH]c1ccccc12
Ki [1]: 16 nM | Ki [2]: 21 nM | Ki [3]: 2 nM | Ki [4]: > 3000 nM | IC50 [5]: 3 nM | Ki [6]: 1000 nM

CCN1C(=O)[C@@H]2Cc3c([nH]c4ccccc34)[C@@H](c3ccc(Cl)cc3)N2C1=O
IC50 [7]: 330 nM

S=C=Nc1cc2c(cn1)[nH]c1ccccc12
Ki [3]: 5 nM | IC50 [5]: 3 nM

CCN1C(=O)[C@@H]2Cc3c([nH]c4ccccc34)[C@@H](c3ccc(Br)cc3)N2C1=O
IC50 [7]: 40 nM

COc1ccc([C@@H]2N[C@@H](C(=O)O)Cc3c2n(C)c2ccccc32)cc1OC
IC50 (Acetylcholinesterase): 2500 nM

c1ccc2c(c1)[nH]c1c2ncc2[nH]c3ccccc3c21
Ki [1]: 1 nM | Ki [2]: 1 nM | Ki [3]: 1 nM | Ki [4]: > 1000 nM | Ki [6]: 40 nM

CCCCN1CC(=O)N2C(Cc3c([nH]c4ccccc34)C2c2ccc3c(c2)OCO3)C1=O (configuration not stated)
IC50 [7]: 3 nM

O=C1C2Cc3c([nH]c4ccccc34)[C@@H](c3ccc4c(c3)OCO4)N2C(=O)CN1CCC1CCN(Cc2ccccc2)CC1 (some centres not stated)
IC50 [7]: 150 nM | IC50 (Acetylcholinesterase): 36 nM

Cn1ccnc1CN1CC[C@@H](N2CC(=O)N3[C@H](c4ccc5c(c4)OCO5)c4[nH]c5ccccc5c4C[C@@H]3C2=O)C1
IC50 [7]: 0.8 nM

CCCCN1CC2Cc3c([nH]c4ccccc34)C(c3ccc4c(c3)OCO4)N2C1=O (configuration not stated)
IC50 [7]: 60 nM

CCOC(=O)c1cc2c(cn1)[nH]c1ccccc12
Ki [3]: 1 nM

COc1ccc(N2CC(=O)N3[C@H](c4ccc5c(c4)OCO5)c4[nH]c5ccccc5c4C[C@@H]3C2=O)cc1
IC50 [7]: 16 nM

CCCCN1C(=O)[C@@H]2Cc3c([nH]c4ccccc34)[C@@H](c3ccc(Br)cc3)N2C1=O
IC50 [7]: 40 nM

O=C(NCCCCCCNc1c2c(nc3ccccc13)CCCC2)[C@@H]1Cc2c([nH]c3ccccc23)CN1
INH (Cholinesterase): 22 nM | IC50 (Acetylcholinesterase): 22 nM

N#Cc1cc2c(cn1)[nH]c1ccccc12
IC50 [5]: 3 nM

COc1ccc(-[n+]2ccc3c4ccccc4n(C)c3c2)cc1
IC50 (Cholinesterase): 32 µM and 116 µM | IC50 (Acetylcholinesterase): 300 nM

CCOC(=O)c1ncc2[nH]c3cccc(OC(C)C)c3c2c1C
IC50 [5]: 0.4 nM

O=c1c2cc(NS(=O)(=O)c3ccccc3OC(F)(F)F)ccc2cc2n1CCc1c-2[nH]c2ccccc12
IC50 (Cholinesterase): 3.6 µM

CC(C)(C)COC(=O)c1cc2c(cn1)[nH]c1ccccc12
IC50 [5]: 750 nM

CCCOC(=O)c1cc2c(cn1)[nH]c1ccccc12
IC50 [5]: 1 nM

COc1ccc(C2c3[nH]c4ccccc4c3CC3C(=O)N(C4CCCCC4)C(=O)N32)cc1 (configuration not stated)
IC50 [7]: 3 nM

Cn1c2ccccc2c2cc[n+](-c3ccc(Cl)cc3)cc21
IC50 (Cholinesterase): 32 µM and 116 µM | IC50 (Acetylcholinesterase): 560 nM and 300 nM

COc1ccc2c3c([nH]c2c1N)C(C)NCC3 (configuration not stated)
IC50 (Acetylcholinesterase): 2000 nM

CC(C)N1CC(=O)N2C(Cc3c([nH]c4ccccc34)C2c2ccc3c(c2)OCO3)C1=O (configuration not stated)
IC50 [7]: 3 nM

CN1CCN(C(=O)c2ccc(-c3ccc(C(=O)N4CCc5c([nH]c6ccccc56)C4c4ccc5c(c4)OCO5)o3)cc2)CC1 (configuration not stated)
IC50 [7]: 8 nM

COC(=O)c1cc2c(cn1)[nH]c1ccc(O)cc12
IC50 [5]: 4 nM

CCOC(=O)c1nc(C)c2[nH]c3cc(OC)c(OC)cc3c2c1CC
Ki [1]: 19 nM | Ki [2]: 4 nM | Ki [3]: 6 nM | Ki [4]: 75 nM | Ki [6]: 3 nM

COc1ccc2c3ccnc(C)c3n(CC3CC(c4ccccc4)=NO3)c2c1 (configuration not stated)
IC50 (Acetylcholinesterase): 11000 nM

C#CCn1c2cc(OC)ccc2c2ccnc(C)c21
IC50 (Acetylcholinesterase): 1900 nM

CCOC(=O)c1ncc2[nH]c3ccc(O)cc3c2c1COC
Ki [1]: 5 nM | Ki [2]: 11 nM | Ki [3]: 2 nM | Ki [4]: 3000 nM | IC50 [5]: 0.5 nM | Ki [6]: 19 nM

COc1ccc2c(c1)[nH]c1c(C(C)=O)nccc12 [ARENARINE C]
IC50 (Cholinesterase): 27 µM | IC50 (Acetylcholinesterase): 4000 nM

CCc1c(C(=O)OC)nc(C)c2[nH]c3cc(OC)c(OC)cc3c12
Ki [1]: 8 nM | Ki [2]: 4 nM | Ki [3]: 6 nM | Ki [4]: 130 nM | Ki [6]: 1 nM

CCOC(=O)c1ncc2[nH]c3ccccc3c2c1COC
Ki [1]: 3 nM | Ki [2]: 5 nM | Ki [3]: 0.6 nM | Ki [4]: 1200 nM | IC50 [5]: 0.5 nM | Ki [6]: 10 nM

CCN1C(=O)C2Cc3c([nH]c4ccccc34)C(c3ccc(OC)cc3)N2C1=O (configuration not stated)
IC50 [7]: 3 nM

CCOC(=O)c1ncc2[nH]c3ccc(OC)cc3c2c1COC
Ki [1]: 1 nM | Ki [2]: 2 nM | Ki [3]: 0.1 nM | IC50 [5]: 0.5 nM | Ki [6]: 4 nM

O=C1C2Cc3c([nH]c4ccccc34)C(c3ccc4c(c3)OCO4)N2C(=O)CN1Cc1ccccc1 (configuration not stated)
IC50 [7]: 3 nM
